Measured values published in US12667546B2, “Methods for manipulating cell state transitions in cancer” (AGENCY FOR SCIENCE, TECHNOLOGY AND RESEARCH, priority 2018, dated 2026).
Entries after “also recorded” stand apart in the source; their conditions may differ. Read-outs that look alike come from different tables or passages of the source.

Tests used:
NAMEC8-Ras = experiment: Tumor formation of pre-treated NAMEC8-Ras injected subcutaneously; assay type: in vivo, NSG mice; conditions: pre-treated cells, 11 weeks
NAMEC8 [1] = experiment: Expression of EMT and lineage markers (qRT-PCR, immunoblot, immunofluorescence) in NAMEC8; assay type: cell-based, human; conditions: transcript and protein
Procedure: Cells were rinsed twice in ice-cold PBS. Total RNA was extracted using Trizol (Invitrogen) and column-purified with RNeasy kits (Qiagen). cDNA synthesis was performed with 500 ng of total RNA at 37° C. for 2 h using the SuperScript III First-Strand Synthesis System (Thermo Fisher Scientific), and subsequently diluted 5-fold. mRNA levels were measured with gene-specific primers listed below using the ABI Prism 7900HT Sequence Detection System 2.2 (Applied Biosystems). Results were normalized to GAPDH and analyzed using SDS 2.2 software.
Cells were harvested and scraped from culture dishes in ice-cold PBS. They were then centrifuged at 12000 rpm for 5 min at 4° C. The pellets were then snap frozen in liquid nitrogen or lysed in ice-cold RIPA lysis buffer (Thermo Scientific) and left on ice for 30 min. Subsequently, the lysates were centrifuged at 12000 rpm for 10 min at 4° C. The supernatants were then aspirated and placed in fresh tubes. Protein concentrations were determined using Coomaisse Blue. 50-80 μg total protein was mixed with NuPAGE™ LDS sample buffer and heated at 70° C. for 10 min. Samples were loaded into NuPAGE™ 4-12% Bis-Tris gels (precast polyacrylamide gel; Invitrogen™). Gel electrophoresis was done at 200V for 1.5 h and then blotted onto nitrocellulose membranes (Trans-Blot Turbo™ transfer pack; Bio-Rad). The membranes were blocked with 5% skimmed milk in Tris-buffered saline (TBS; 1st BASE) with 0.1% Tween-20 (Santa Cruz), and then incubated with primary antibodies overnight at 4° C. Thereafter, the membranes were incubated with a horseradish peroxidase (HRP)-conjugated secondary antibody at room temperature for one hour. Finally, the immunoreactive proteins were visualized by using an enhanced chemiluminescent (ECL) reagent (Thermo Scientific, 34075) with the Chemidoc™ Imager (Bio-Rad, 17001401).
Cell cultures were fixed in 4% paraformaldehyde and permeabilized with 0.25% Triton X-100, followed by blocking with 1% bovine serum albumin in PBST. Cells were incubated in specific primary antibodies, followed by the appropriate secondary antibodies conjugated with Alexa Fluor-488 or -594 (Molecular Probes). Cell nuclei were then stained with DAPI and then viewed and imaged with an Axio Observer D1 epifluorescence microscope with a built-in AxioCamMR3 camera (Zeiss), using the optimal filters and 100-200× magnifications.

NAMEC8 [2] = experiment: Flow cytometry of CD44 and CD24, NAMEC8; assay type: cell-based, human
Procedure: Cells were harvested as per FACS and resuspended in 100 μl of solution containing CD24-PE and CD44-APC (BD-Biosciences) antibodies diluted in 2% FBS in PBS (1:40 dilution). Cells were stained for 45 min with vortexing every 10 min to ensure even staining. After antibody incubation, cells were washed once and resuspended in 300 μl 2% FBS in PBS. Cells were then filtered through a 40 μm strainer and analyzed on BD LSR Fortessa X-20 Cell Analyzer.

NAMEC8 [3] = experiment: Cell morphology of treated NAMEC8; assay type: cell-based, human; conditions: bexarotene, TTNPB, SGC-CBP30, UNC0642, A-485 1 μM, LLY-283, GSK591 20 nM, C-IN-1 500 nM
Procedure: Human mammary epithelial cell lines (HMLE) were generated as described and immortalized using retroviral vectors to express the catalytic subunit of the human telomerase enzyme, hTERT and the SV-40 Large T antigen. NAMEC8 was generated as described. Briefly, HMLE cells were grown to 50% confluency, followed by differential trypsinization for 1 minute with 0.05% trypsin. Detached cells were carefully collected and re-plated at approximately 200 cells per well of a 24-well plate. Upon expansion, wells were screened for populations that were morphologically mesenchymal and can be stably propagated. Clonal and non-clonal NAMEC cell lines were generated. NAMEC8 is a non-clonal line derived from at least 200 mesenchymal cells. HMLE cells and NAMECs were maintained in MEGM (Lonza).

metastatic TNBC = conditions: cited from earlier work

Molecule | tumor formation / tumor size (NAMEC8-Ras) | expression of EMT and basal/luminal markers (NAMEC8 [1]) | CD44/CD24 surface expression (NAMEC8 [2]) | cell morphology (NAMEC8 [3]) | response rate (metastatic TNBC; Keynote 012, phase 1, monotherapy) [%] | response rate (metastatic TNBC; Keynote 086, phase 2, monotherapy) [%]
CNC(=O)Nc1ccc2c(c1)CC[C@@]21OC(=O)N(CC(=O)N(Cc2ccc(F)cc2)[C@@H](C)C(F)(F)F)C1=O [A-485] | Tumor formation was still observed | upregulation of E-cadherin protein expression, with slight decrease in the mesenchymal markers | obvious increase in CD44 expression; also recorded: higher CD44 expression | tight clusters of epithelial islands were observed; also recorded: Epithelial-like morphology was observed | – | –
Pembrolizumab: immune checkpoint monotherapy in Keynote 012 and Keynote 086 studies | – | – | – | – | 18 | 5
